This note sets out measurements from ChEMBL document CHEMBL4184216, “Diversity oriented synthesis of chromene-xanthene hybrids as anti-breast cancer agents” (Bioorg Med Chem Lett, 2018).

Where a name gives a salt, the structure may show the parent alone. Activity calls are given as the source filed them. The calls are words filed in the database; no cut-off is given here.

Test [1] deals with MDA-MB-231. Put plainly: Cytotoxicity against human MDA-MB-231 cells assessed as reduction in cell viability incubated for 24 hrs by MTT assay. The class given is functional, cell-based. To be noted: MDA-MB-231, 24 h.
In another test the test system is HEK293. Put plainly: Cytotoxicity against HEK293 cells assessed as reduction in cell viability incubated for 24 hrs by MTT assay. The class given is ADME, cell-based. As to conditions: Homo sapiens, HEK293, 24 h. (In general: Formazan colour is commonly taken as a measure of viable cells.)
The test system of the next test is MCF7. Put plainly: Cytotoxicity against human MCF7 cells assessed as reduction in cell viability incubated for 24 hrs by MTT assay. In kind it is functional, cell-based. As to conditions: MCF7, 24 h.
Test [2] concerns MDA-MB-231. Put plainly: Cell cycle arrest in human MDA-MB-231 cells assessed as reduction in accumulation at G2/M phase at 0.125 to 0.25 uM incubated for 24 hrs by propidium iodide staining based flow cytometry. The class given is functional.
Test [3] has as its system MDA-MB-231. Put plainly: Induction of apoptosis in human MDA-MB-231 cells at 0.125 to 0.25 uM incubated for 24 hrs by Annexin V-FITC/propidium iodide staining based flow cytometry. The class given is functional, cell-based.
Test [4] relates to MDA-MB-231. Put plainly: Cell cycle arrest in human MDA-MB-231 cells assessed as increase in accumulation at G1 phase at 0.125 to 0.25 uM incubated for 24 hrs by propidium iodide staining based flow cytometry. In kind it is functional.
Test [5] concerns MDA-MB-231. Put plainly: Cell cycle arrest in human MDA-MB-231 cells assessed as increase in accumulation at subG1 phase at 0.125 uM incubated for 24 hrs by propidium iodide staining based flow cytometry. In kind it is functional. On the technique in general: A flow cytometer gives signals particle by particle.

For the molecule `COc1cccc(C2C3=C(Oc4ccc(C[C@H](N)CO)cc42)c2ccccc2OC3(C)C)c1` (stereo not given in full), the IC50 – broadly, the point on the concentration scale where inhibition reaches its midpoint – is 3.5 µM in the test on MDA-MB-231 [1], > 25 µM in the test with HEK293 and 2.1 µM in the test on MCF7.

In the case of `COc1ccccc1C1C2=C(Oc3ccc(C[C@H](N)CO)cc31)c1ccccc1OC2(C)C` (stereo not given in full), the results for the IC50 in the test with MDA-MB-231 [1], with HEK293 and in the test with MCF7 were 2.5 µM, > 25 µM and 2.6 µM, respectively. The result in the test with MDA-MB-231 [2], in the test on MDA-MB-231 [4] and in the test on MDA-MB-231 [5] was Active. For the same molecule, the Activity result in the test on MDA-MB-231 [3] is “Dose-dependent effect”.

As to `COc1cccc(C2C3=C(Oc4ccc(C[C@@H](CO)NC(=O)OC(C)(C)C)cc42)c2ccccc2OC3(C)C)c1` (stereo not given in full), the IC50 is 2.9 µM in the test with MDA-MB-231 [1], > 25 µM in the test with HEK293 and 29.9 µM in the test with MCF7.

As to `COc1ccccc1C1C2=C(Oc3ccc(C[C@H]4COC(C)(C)N4C(=O)OC(C)(C)C)cc31)c1ccccc1OC2(C)C` (stereo not given in full), the IC50 in the test on MDA-MB-231 [1] was 29 µM; in the test on HEK293, > 25 µM; with MCF7 it was 22.3 µM.

Turning to `COc1ccccc1C1C2=C(Sc3ccc(Cl)cc31)c1ccccc1OC2(C)C` (stereo not given), the 50% inhibitory concentration (IC50) was 48.6 µM in the test on MDA-MB-231 [1], > 25 µM in the test with HEK293 and 39.5 µM in the test on MCF7.

Take `COc1ccc(C2C3=C(Sc4ccc(Cl)cc42)c2ccccc2OC3(C)C)cc1` (stereo not given): the IC50 in the test on MDA-MB-231 [1] is 19.1 µM; in the test with HEK293, > 25 µM; with MCF7 it was 39 µM.

Take `CC/C(=C(\c1ccccc1)c1ccc(OCCN(C)C)cc1)c1ccccc1` [TAMOXIFEN CITRATE]: the IC50 in the test on HEK293 stood at 30 µM.

Turning to `COc1ccc2c(c1)C(c1ccc(SC)cc1)C1=C(O2)c2ccccc2OC1(C)C` (stereo not given), the IC50 with MDA-MB-231 [1] was 17.1 µM; in the test with HEK293, > 25 µM; in the test on MCF7, 20 µM.

Consider `CC1(C)Oc2ccccc2C2=C1C(c1cccs1)c1cc(Cl)ccc1S2` (stereo not given), for which the IC50 was 29 µM with MDA-MB-231 [1], > 25 µM in the test with HEK293 and 22.3 µM in the test on MCF7.

For the molecule `COc1cccc2c1C(c1cccs1)C1=C(S2)c2ccccc2OC1(C)C` (stereo not given), the IC50 was 29 µM in the test on MDA-MB-231 [1], > 25 µM in the test with HEK293 and 26.3 µM in the test on MCF7.

For `CSc1ccc(C2C3=C(Oc4ccc(C[C@@H](CO)NC(=O)OC(C)(C)C)cc42)c2ccccc2OC3(C)C)cc1` (stereo not given in full), the IC50 in the test on MDA-MB-231 [1] is 21.1 µM; with HEK293, > 25 µM; with MCF7, 32 µM.
